Target: T1, human mGluR2 receptor (Homo sapiens, UniProt Q14416)
T1 construct: expressed in transfected cells
Test: [35S]-GTPγS binding assay of mGluR2 receptor activation
Assay type: biochemical
Settings: membranes from CHO cells stably expressing human mGluR2; 1 μM glutamate
Procedure, shortened: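 CHO membranes stably expressing human mGluR2 (30 μg) preincubated 15 min at room temperature with compound (3 nM–300 μM), then 1 μM glutamate, 30 μM GDP, 0.1 nM [35S]-GTPγS, 30 min at 30° C in HEPES/NaCl/MgCl2. Filtration counting; EC50 and Emax relative to maximal glutamate effect by non-linear regression.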

T1 sequence (Q14416 19-872): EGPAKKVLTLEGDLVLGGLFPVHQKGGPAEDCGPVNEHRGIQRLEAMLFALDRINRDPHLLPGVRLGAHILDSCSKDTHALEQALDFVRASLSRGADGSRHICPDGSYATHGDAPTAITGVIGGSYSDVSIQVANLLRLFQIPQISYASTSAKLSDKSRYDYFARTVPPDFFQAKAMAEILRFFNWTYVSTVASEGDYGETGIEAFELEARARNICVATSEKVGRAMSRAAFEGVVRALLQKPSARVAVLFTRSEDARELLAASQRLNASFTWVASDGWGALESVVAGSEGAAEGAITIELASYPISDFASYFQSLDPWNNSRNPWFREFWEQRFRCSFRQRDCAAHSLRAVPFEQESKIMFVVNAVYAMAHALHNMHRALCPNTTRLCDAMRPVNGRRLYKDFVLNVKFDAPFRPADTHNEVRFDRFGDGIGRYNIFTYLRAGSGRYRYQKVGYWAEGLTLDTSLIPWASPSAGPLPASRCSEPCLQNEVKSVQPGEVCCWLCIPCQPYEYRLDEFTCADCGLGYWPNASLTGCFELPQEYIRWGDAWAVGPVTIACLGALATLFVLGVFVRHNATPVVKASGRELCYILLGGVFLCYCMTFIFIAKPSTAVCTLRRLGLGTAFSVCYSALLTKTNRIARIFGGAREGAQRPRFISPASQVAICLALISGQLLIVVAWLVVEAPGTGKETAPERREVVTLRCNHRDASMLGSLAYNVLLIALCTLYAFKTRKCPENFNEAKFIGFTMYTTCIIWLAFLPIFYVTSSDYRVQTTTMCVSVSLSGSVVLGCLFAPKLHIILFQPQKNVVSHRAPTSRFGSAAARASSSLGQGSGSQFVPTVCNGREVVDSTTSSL

EC50 | Compound
0.05 µM | O=C1c2c(Cl)cc(-c3cccnc3)cc2CN1Cc1ccc(OC(F)(F)F)cc1 [Example 105, 7-Chloro-5-pyridin-3-yl-2-(4-trifluoromethoxy-benzyl)-2,3-dihydro-isoindol-1-one]
1.45 µM | Cc1cc(CNCc2ccccn2)cc2c1C(=O)N(Cc1ccc(OC(F)(F)F)cc1)C2 [Example 40, 7-Methyl-5-{[(pyridine-2-ylmethyl)-amino]-methyl}-2-(4-trifluoromethoxy-benzyl)-2,3-dihydro-isoindol-1-one]
1.45 µM | Cc1cc(N2CCN(C)CC2)cc2c1C(=O)N(Cc1ccc(Cl)cc1)C2 [Example 117, 2-(4-chlorobenzyl)-7-methyl-5-(4-methylpiperazin-1-yl)-2,3-di-hydroisoindol-1-one]
1.28 µM | Cc1cc(C2CCN(C)CC2)cc2c1C(=O)N(Cc1ccc(OC(F)(F)F)cc1)C2 [Example 159, 7-Methyl-5-(1-methyl-piperidin-4-yl)-2-(4-trifluoromethoxy-benzyl)-2,3-dihydro-isoindol-1-one]
